Reference: a melting point compilation (Tetko et al.)

Conditions: a range is the spread between reports

Row | Compound | melting point
1 | Cc1cccc(O)c1 | 11 to 12 °C
2 | O=C1CCC(=O)N1 | 124 to 126 °C
3 | Cc1ccc(-c2ccc(C)cc2)cc1 | 120 to 121 °C
4 | c1c[nH]nn1 | 23 to 24 °C
5 | c1ccc2cnncc2c1 | 90.5 to 91 °C
6 | O=C(O)C(Cl)(Cl)Cl | 56 to 57.5 °C
7 | Cc1nc2ccccc2[nH]1 | 176 °C
8 | CC12CCC3C(CCC4CC(OCc5ccccc5)CCC43C)C1CCC2=O (centres undefined) | 216 to 220 °C
9 | O=C(O)CCSCCC(=O)O | 129 to 131 °C
10 | CCOC(=O)c1csc(C)n1 | 55 to 57 °C
11 | NC(=O)c1ccc(-c2ccccc2)cc1 | 223 to 228 °C
12 | CCOC(=O)c1ccc([N+](=O)[O-])o1 | 100 to 101 °C
13 | O=[N+]([O-])c1cccc2cnccc12 | 108 to 110 °C
14 | C=C(C#N)C(=O)OCC | -22.5 to -22 °C
15 | O=C1c2c(O)cccc2Cc2cccc(O)c21 | 179 to 181 °C
16 | BrCCCCOc1ccccc1 | 41 to 42 °C
17 | CC(=O)c1cc2ccccc2o1 | 71 to 76 °C
18 | CC(C)(C)C1CCCCC1 | -41.2 to -41 °C
19 | CC(C)(C)C#N | 15 to 17 °C
20 | O=C(O)c1ccc(C(=O)c2ccccc2)cc1 | 198 to 199 °C
21 | Cc1ccc(N)cc1 | 43 to 44 °C

Row | Compound | melting point
22 | O=C(Oc1cccc(OC(=O)c2ccccc2)c1)c1ccccc1 | 116 to 118 °C
23 | CCCCCCCCCC | -30 to -29.7 °C
24 | O=C(c1ccco1)C(O)c1ccco1 (centres undefined) | 136 to 138 °C
25 | CCCCCCCCC(C)O (centres undefined) | -5 to -2 °C
26 | CCCCCCCN | -23 to -18 °C
27 | CN(C)c1cccc2c(S(N)(=O)=O)cccc12 | 220 °C
28 | Clc1ccc(Br)cc1 | 65 to 68 °C
29 | ClCBr | -88 to -87.9 °C
30 | CC1CNC(C)CN1 (centres undefined) | 114 to 118 °C
31 | CC(C)(C)C1CCC(=O)CC1 | 48.5 to 49 °C
32 | O=C(O)COCC(=O)O | 143 to 148 °C
33 | CC(C)=CC(=O)O | 67 to 69.5 °C
34 | CC1(C)OC(=O)CC(=O)O1 | 94 to 98 °C
35 | ClC(Cl)Cl | -63.6 to -63 °C
36 | N#Cc1c2ccccc2cc2ccccc12 | 175 to 177 °C
37 | c1ccc(-c2ncc[nH]2)cc1 | 148 to 149 °C
38 | Cc1csc(S)n1 | 88 to 89.3 °C
39 | O=C(Cl)c1ccc(Br)cc1 | 40 to 42 °C
40 | N#Cc1ccccc1-c1ccccc1 | 38 to 41 °C
41 | CCCc1cc(O)nc(S)n1 | 219 to 220 °C
42 | CC(C)(C)OC(=O)CCC(Cl)(Cl)Cl | 20 °C

Row | Compound | melting point
43 | CSc1ccc(C(=O)O)cc1 | 194 to 195 °C
44 | C=C(C)C(=O)OC | -48 to -47.5 °C
45 | COC(=O)CS(=O)(=O)c1ccccc1 | 30 to 35 °C
46 | NC(=O)c1ccc(O)cc1 | 161 to 162 °C
47 | Oc1ccc(Oc2ccccc2)cc1 | 80 to 84 °C
48 | Clc1ccc(-c2ccc(Cl)cc2)cc1 | 149 °C
49 | OCc1ccccc1O | 85 to 87 °C
50 | Cc1cccc(C(=O)O)c1C | 145 to 146 °C
51 | Nc1ccc(Br)cc1 | 63 to 66.4 °C
52 | NC(=O)c1cccc2ccccc12 | 206 to 208 °C
53 | Nc1ccccc1N | 101 to 102 °C
54 | O=Cc1ccccc1[N+](=O)[O-] | 43.5 to 46 °C
55 | Cc1cc(=O)cc(C)o1 | 132 to 134 °C
56 | O=Cc1ccc(I)cc1 | 77 to 78 °C
57 | Nc1cccc(Oc2ccccc2)c1 | 36 to 37 °C
58 | CCSC | -106 °C
59 | O=C1CCCCCCCCCCCCCCO1 | 32 to 35 °C
60 | Clc1ccc(Cl)nc1 | 60.5 to 61 °C
61 | [O-][N+](=Nc1ccccc1)c1ccccc1 | 35 to 36 °C
62 | O=C(Cl)c1ccccc1F | 4 to 5 °C
63 | Clc1cccs1 | -72 to -71.9 °C

Row | Compound | melting point
64 | COC(=O)c1cc(Cl)ccc1O | 46 to 50 °C
65 | Clc1ccc(Cl)s1 | -41 to -40.5 °C
66 | C1COCOC1 | -45 to -42 °C
67 | COC(=O)OC | 1 to 4 °C
68 | CCCCCOC(=O)CCC | -73.2 to -73 °C
69 | C=CCN | -88.2 to -88 °C
70 | Cc1ncc([N+](=O)[O-])n1CCO | 159 to 160 °C
71 | CC/C=C/CC(=O)O | 11 to 12 °C
72 | OCCCCCCCCCO | 45.8 to 47 °C
73 | O=C(O)c1cc2ccccc2o1 | 192 to 194 °C
74 | Clc1ccc(Cl)nn1 | 67.5 to 68 °C
75 | COP(=S)(OC)Oc1ccc(SC)c(C)c1 | 7 to 7.5 °C
76 | O=C(O)c1ccc(-c2ccccc2)cc1 | 225 to 228 °C
77 | C1CCCCC1 | 6.45 to 7 °C
78 | Clc1ccc(Br)c(Cl)c1 | 26 to 27 °C
79 | c1ccc(Nc2cccc3ccccc23)cc1 | 61 to 62 °C
80 | Cc1ccc(C)c(C)c1C | -6.2 to -6 °C
81 | NC(=O)c1c(F)cccc1F | 146 to 147 °C
82 | O=C(Cl)CCC(=O)Cl | 17 to 20 °C
83 | N#Cc1cccc([N+](=O)[O-])c1 | 116 to 117 °C
84 | S=C=Nc1cccc2ccccc12 | 56 to 58 °C
